Experimental findings from PubChem BioAssay (NCI) are described below.

Test systems include EKVX NSCLC; OVCAR-5 ovarian; SR leukemia; SW-620 colon; U251 CNS; SF-268 CNS; OVCAR-8 ovarian; HOP-62 NSCLC; SK-OV-3 ovarian; MDA-MB-435.
Experiment in all cases: growth of human tumour cells (NCI), 48 h

SMILES strings stand for the structures. Where “and” joins values, the source holds several entries; their conditions need not be identical. Equal values may be shown once.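 Assay format: 96-well plates, 48-hour exposure. The concentration for 50% growth inhibition is given as GI50. Definition used: TGI = concentration required for complete inhibition of growth.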

With `Nc1nc(CC2(O)CCCCC2)cc(-c2ccccc2)n1`, the TGI in the assay with EKVX NSCLC was more than 100 µM; in the assay with OVCAR-5 ovarian, 54.4 µM; in the assay on SR leukemia, 49.6 µM; in the assay on SW-620 colon, 65 µM; in the assay on U251 CNS, more than 100 µM; in the assay on SF-268 CNS it was more than 100 µM. Also, the TGI was more than 84.7 µM in the assay on OVCAR-8 ovarian, more than 80.6 µM in the assay on HOP-62 NSCLC and more than 100 µM in the assay on SK-OV-3 ovarian.

On to `N.N.NCCCCCN.O=C([O-])CC(=O)[O-].O=C([O-])CC(=O)[O-].[Pt+4].[Pt+4]`, for which the GI50 was more than 100 µM with EKVX NSCLC; more than 100 µM with OVCAR-5 ovarian; 58.6 µM with SR leukemia; more than 100 µM in the assay on SW-620 colon; more than 100 µM with U251 CNS; 71.4 µM in the assay with SF-268 CNS. Besides, the GI50 in the assay with OVCAR-8 ovarian was more than 100 µM; in the assay on HOP-62 NSCLC, 43 µM; in the assay with SK-OV-3 ovarian, more than 100 µM. For the same compound, the TGI with EKVX NSCLC, in the assay with OVCAR-5 ovarian, with SR leukemia, with SW-620 colon, with U251 CNS and in the assay on SF-268 CNS was more than 100 µM throughout. The TGI with OVCAR-8 ovarian, in the assay on HOP-62 NSCLC and in the assay with SK-OV-3 ovarian was more than 100 µM in each case.

Regarding `CCOC(=O)NC(=O)c1cn(C2OC(COC(=O)CCCCCCCCC(=O)OCC3OC(n4cc(C(=O)NC(=O)OCC)c(=O)[nH]c4=O)C4OC(C)(C)OC34)C3OC(C)(C)OC32)c(=O)[nH]c1=O` (centres undefined), the TGI in the assay with EKVX NSCLC, in the assay with OVCAR-5 ovarian, in the assay with SR leukemia, with SW-620 colon, in the assay on SF-268 CNS and in the assay on OVCAR-8 ovarian was more than 100 µM in each case. Further, the TGI in the assay on HOP-62 NSCLC is more than 100 µM.

As to `CCC1(N)C(=O)OCc2c1cc1n(c2=O)Cc2cc3ccccc3nc2-1` (centres undefined), the GI50 in the assay with EKVX NSCLC was 20.7 µM; in the assay with OVCAR-5 ovarian, 30 µM; in the assay on SW-620 colon, 12.9 µM; in the assay with U251 CNS it was 4.9 µM; in the assay on OVCAR-8 ovarian, 12 µM; in the assay with HOP-62 NSCLC, 4.77 µM. The GI50 was 8.99 µM in the assay with SK-OV-3 ovarian and 21.1 µM in the assay on MDA-MB-435. Besides, the TGI in the assay with EKVX NSCLC was more than 100 µM; in the assay with OVCAR-5 ovarian, more than 100 µM; in the assay on SW-620 colon, more than 100 µM; with U251 CNS, more than 100 µM; in the assay on SF-268 CNS, more than 100 µM; with OVCAR-8 ovarian it was more than 72.4 µM. The TGI in the assay with HOP-62 NSCLC was more than 100 µM; with SK-OV-3 ovarian, 72 µM and > 100 µM; in the assay with MDA-MB-435, more than 100 µM.

As for `CCN(CC)/[N+]([O-])=N/OCC(C)O` (centres undefined), the TGI with EKVX NSCLC, in the assay on OVCAR-5 ovarian, in the assay on SR leukemia, with SW-620 colon, with U251 CNS and in the assay on SF-268 CNS was more than 100 µM each time. Also, the TGI with OVCAR-8 ovarian, in the assay on HOP-62 NSCLC and in the assay on SK-OV-3 ovarian was more than 100 µM throughout.

Regarding `COc1ccc(C(=O)c2cc(C)c(OC)c(C)c2)c(OC)c1N(C(=O)CCl)C(=O)CCl`, the GI50 is 0.0792 µM with EKVX NSCLC; 0.101 µM in the assay on OVCAR-5 ovarian; 0.045 µM in the assay with SR leukemia; 0.0432 µM with SW-620 colon; 0.0509 µM in the assay with U251 CNS; 0.548 µM in the assay on SF-268 CNS. For the same compound, the GI50 in the assay on OVCAR-8 ovarian was 0.062 µM; in the assay with HOP-62 NSCLC, 0.0546 µM; in the assay with SK-OV-3 ovarian, 0.0514 µM. Further, the TGI with EKVX NSCLC was 69 µM; in the assay with OVCAR-5 ovarian, more than 53.6 µM; in the assay on SR leukemia it was more than 100 µM; in the assay on SW-620 colon, 19.3 µM; with U251 CNS it was 20.3 µM; in the assay with SF-268 CNS, 46 µM. The results for the TGI in the assay on OVCAR-8 ovarian, in the assay on HOP-62 NSCLC and with SK-OV-3 ovarian were more than 92.4 µM, 25 µM and more than 83.8 µM, respectively.

As to `COc1cc2ccc3c4cc(OC)c(OC(C)C)cc4c[n+](C)c3c2cc1OC`, the TGI in the assay with EKVX NSCLC, in the assay with OVCAR-5 ovarian, with SR leukemia, in the assay with SW-620 colon, in the assay with U251 CNS and in the assay with SF-268 CNS was more than 100 µM throughout. Further, the TGI in the assay with OVCAR-8 ovarian, with HOP-62 NSCLC and with SK-OV-3 ovarian was more than 100 µM throughout.

With `CCCCCC(=C/c1ccccc1)/C=N/N=C(N)N`, the GI50 is 4.03 µM in the assay with EKVX NSCLC; 1.74 µM in the assay with OVCAR-5 ovarian; 1.52 µM with SW-620 colon; 1.7 µM with U251 CNS; 1.45 µM in the assay with SF-268 CNS; 1.74 µM in the assay with OVCAR-8 ovarian. Moreover, the GI50 with HOP-62 NSCLC was 1.63 µM; in the assay on SK-OV-3 ovarian, 2.95 µM; in the assay on MDA-MB-435, 1.7 µM. Besides, the TGI with EKVX NSCLC came to 19.1 µM; in the assay on OVCAR-5 ovarian it was 3.69 µM; in the assay with SW-620 colon, 3.16 µM; in the assay with U251 CNS, 3.18 µM; in the assay with SF-268 CNS it was 2.99 µM; in the assay with OVCAR-8 ovarian, 3.54 µM. Further, the TGI in the assay on HOP-62 NSCLC turned out to be 3.31 µM; in the assay on SK-OV-3 ovarian, 10.8 µM; with MDA-MB-435, 3.28 µM.

As to `O=C(CC1SC(=Nc2ccccc2Cl)NC1=O)Nc1ccc(Cl)cc1` (centres undefined), the TGI with EKVX NSCLC was more than 100 µM; with OVCAR-5 ovarian, more than 100 µM; in the assay with SR leukemia it was 69.9 µM; with SW-620 colon, 28.4 µM; with U251 CNS, more than 100 µM; with SF-268 CNS, more than 100 µM. Moreover, the TGI in the assay on HOP-62 NSCLC and in the assay on SK-OV-3 ovarian was more than 100 µM throughout.

For `C/C=C(\C)C(=O)N1c2ccccc2CC1c1c(C)[nH]c2ccccc12` (centres undefined), the TGI in the assay with EKVX NSCLC, in the assay with OVCAR-5 ovarian, in the assay on SR leukemia, with SW-620 colon, in the assay on U251 CNS and with OVCAR-8 ovarian was more than 100 µM each time. In addition, the TGI in the assay on HOP-62 NSCLC and with SK-OV-3 ovarian was more than 100 µM throughout.

As to `COc1cccc(NC(=O)c2ccc(NC3=C(Cl)C(=O)N(Cc4ccccc4)C3=O)cc2)c1`, the GI50 was 24.4 µM with EKVX NSCLC; 27.5 µM in the assay with OVCAR-5 ovarian; 10.3 µM in the assay on SW-620 colon; 7.12 µM in the assay on U251 CNS; 17.5 µM in the assay on SF-268 CNS; 4.17 µM in the assay with OVCAR-8 ovarian. The figures for the GI50 with HOP-62 NSCLC, in the assay with SK-OV-3 ovarian and with MDA-MB-435 were 19.1 µM, 30.5 µM and 10.6 µM, respectively. Moreover, the TGI in the assay on EKVX NSCLC worked out at 49.4 µM; in the assay with OVCAR-5 ovarian, 65.7 µM; in the assay on SW-620 colon it was 25.7 µM; in the assay with U251 CNS it was 19.9 µM; with SF-268 CNS it was 37.4 µM; in the assay on OVCAR-8 ovarian, 16.5 µM. Further, the TGI with HOP-62 NSCLC came to 34.8 µM; in the assay with SK-OV-3 ovarian, 85.4 µM; with MDA-MB-435, 41.4 µM.
